Results reported in US20040142851A1, “Hydrazinopeptoids and their uses for treating cancers” (priority 2001, published 2004).
Values belong to the compound of their own block, whether it stands above or below them. Square brackets hold non-standard residues; d marks the D form. Peptide text beside a SMILES is read from it. * marks the point of attachment. Nle = CCCC[C@H](N)C(=O)O; Cbz = O=C(OCc1ccccc1)*

What was measured:
[1] = target: purified proteasome (chymotrypsin activity) (Homo sapiens, UniProt P28074); assay: Inhibition of the chymotrypsin catalytic activity of the purified proteasome; format: biochemical
Excerpt: In vitro analyses of the inhibitory potentialities of the Hydrazinoazapeptoids synthesized vis-à-vis the enzyme activities of the proteasome.
The inhibitory potentialities of the hydrazinoazapeptoids have been quantified with respect to the chymotrypsin enzyme activities of the purified proteasome. The results are expressed as percentages of activity inhibition.
Measurement of the inhibitory properties of the synthesized compounds on the chymotrypsin catalytic activity of the purified proteasome.

XL2 cells [2] = assay: FACS analysis, % of cells blocked in G2/M in XL2 cell cultures; format: cell-based, Xenopus; details: for percentage of cells blocked in mitosis, compared with ALLN (in words) / concentration in the medium necessary to obtain a blockage in mitosis: XL2 cell cultures
Experimental: The molecules synthesized were tested in vitro on the proteolytic activities described of the proteasome, then in vivo on Xenopus (XL2) cell cultures. Knowledge of the cell cycle of XL2 cells has made it possible to carry out synchronization experiments and also to evaluate the duration of each of the phases of the cycle. […]

XL2 cells [3] = assay: Fluorescence microscopy analysis of the stages of mitosis; format: cell-based, Xenopus; details: for % Anaphase + Telophase / % Metaphase / % Prophase: 50 cells blocked in mitosis
Experimental: The molecules synthesized were tested in vitro on the proteolytic activities described of the proteasome, then in vivo on Xenopus (XL2) cell cultures. Knowledge of the cell cycle of XL2 cells has made it possible to carry out synchronization experiments and also to evaluate the duration of each of the phases of the cycle.
Observation of the nuclear content makes it possible to determine the different stages of the mitosis. The following results were obtained using 50 cells blocked in mitosis. The first 7 inhibitors were studied using fluorescence microscopy.

[4] = test system: mouse leukaemia cell cultures; assay: Antiproliferative effect on mouse leukaemia cell cultures; format: cell-based
Excerpt: We have analyzed the effect of the retro compounds on mouse leukaemia cell cultures and confirm that among these products, three compounds have an antiproliferative effect. This effect has been observed on two other cell types, rat hepatocytes and a human breast cancer line.

[5] = test system: cell cycle progression (mitosis); details: lower concentrations only slow down the mitosis; cited from earlier work

Compound: BrH2COC—N^αhPhe-N-azaLeu-Z [PR2]
effect on proliferation (in words) [4]: inhibit proliferation
effect on viability of the cells / cell death (in words) [4]: cause cell death

Compound: o-B(OH)2-Ph-HC═N^αhPhe-N-azaLeu-Z [PR7]
effect on proliferation (in words) [4]: proliferation inhibitors
effect on viability of the cells / cell death (in words) [4]: do not affect the viability of the cells

Compound: Z-N^αhLeu-N-azaPhe-CH2Br [P21]
effect on proliferation (in words) [4]: proliferation inhibitors
effect on viability of the cells / cell death (in words) [4]: do not affect the viability of the cells

Compound: o-B(OH)2-Ph-HC═N^αhLeu-N-azaLeu-Z [PR6]
effect on proliferation (in words) [4]: proliferation inhibitors
effect on viability of the cells / cell death (in words) [4]: do not affect the viability of the cells

Compound: F3COC—N^αhLeu-N-azaLeu-Z [PR5]
effect on proliferation (in words) [4]: inhibit proliferation
effect on viability of the cells / cell death (in words) [4]: cause cell death

Compound: Z-N^αhLeu-N-azaLys-COCH2Br [P22]
effect on proliferation (in words) [4]: inhibit proliferation
effect on viability of the cells / cell death (in words) [4]: cause cell death

Compound: CC(C)C[C@@H](C=O)NC(=O)[C@H](CC(C)C)NC(=O)[C@H](CC(C)C)NC(=O)OCc1ccccc1 [MG132, benzyloxycarbonyl leucinyl-leucinyl-leucinal, reference compound] (Cbz-Leu-Leu-Leu-aldehyde)
% of cells blocked in G2/M (XL2 cells [2]; 50 μM, 7 h): 60.6%

Compound: PhCO—N^αhLeu-N-azaLeu-CF3 [P11]
% inhibition of chymotrypsin activity of the purified proteasome ([1]; 2 mM compound): 40%
% of cells blocked in G2/M (XL2 cells [2]; 144 μM, 7 h): 17.2%

Compound: m-B(OH)2-Ph-HC═N^αhPhe-N-azaLeu-Z [PR8]
effect on proliferation (in words) [4]: inhibit proliferation
effect on viability of the cells / cell death (in words) [4]: cause cell death

Compound: BrH2COC—N^αhPhe-azaLeu-Z [PR3]
effect on proliferation (in words) [4]: inhibit proliferation
effect on viability of the cells / cell death (in words) [4]: cause cell death

Compound: PhCO—N^αhLeu-N-azaLeu-CO2Et [P10]
% inhibition of chymotrypsin activity of the purified proteasome ([1]; 2 mM compound): 42%
% of cells blocked in G2/M (XL2 cells [2]; 143 μM, 7 h): 23.1%

Compound: CCCC[C@@H](C=O)NC(=O)[C@H](CC(C)C)NC(=O)[C@H](CC(C)C)NC(C)=O [ALLN, N-acetyl-leucinyl-leucinyl-norleucinal, reference compound] (Ac-Leu-Leu-[Nle]-aldehyde)
% inhibition of chymotrypsin activity of the purified proteasome ([1]; 1 mM compound): 91%
inhibition at 1000 µM ([1]; 1 mM compound): 90%
% of cells blocked in G2/M (XL2 cells [2]; 100 μM, 7 h): 53%
concentration in the medium necessary to obtain a blockage in mitosis (XL2 cells [2]): 100 µM
% Anaphase + Telophase (XL2 cells [3]): 3%
% Metaphase (XL2 cells [3]): 83%
% Prophase (XL2 cells [3]): 15%
concentration producing an extended stop in mitosis [5]: > 50 µg/mL

Second part, led by results:

inhibition at 2000 µM ([1]; 2 mM compound): 38%
Compound: CC(C)CN(CC(=O)N(CC(C)C)/N=C/c1cccc(B(O)O)c1)NC(=O)OC(C)(C)C [P15, Boc-N^αhLeu-N-azaLeu-CH-Ph-m-B(OH)2]
% of cells blocked in G2/M (XL2 cells [2]; 133 μM, 7 h): 35.8%

inhibition at 2000 µM ([1]; 2 mM compound): 23%
melting point: 138 °C
Compound: CC(C)CN(CC(=O)N(CC(C)C)NC(N)=O)NC(=O)OC(C)(C)C [P7, Boc-N^αhLeu-N-azaLeu-CONH2]
% of cells blocked in G2/M (XL2 cells [2]; 167 μM, 7 h): 12.3%
inhibitory selectivity during the different stages of mitosis (in words) (XL2 cells [3]): much less selective
% Anaphase + Telophase (XL2 cells [3]): 38%
% Metaphase (XL2 cells [3]): 35%
% Prophase (XL2 cells [3]): 27%

melting point: 186 °C
Compound: CC(C)CN(CC(=O)N(CC(C)C)/N=C/c1ccc(B(O)O)cc1)NC(=O)OC(C)(C)C [P15p, Boc-N^αhLeu-N-azaLeu-CH-Ph-p-B(OH)2]

% inhibition of chymotrypsin activity of the purified proteasome ([1]; 2 mM compound): 80%
inhibition at 2000 µM ([1]; 2 mM compound): 70%
melting point: 135 °C
Compound: CC(C)CN(CC(=O)N(Cc1ccccc1)NC(=O)CBr)NC(=O)OC(C)(C)C [P17, Boc-N^αhLeu-N-azaPhe-COCH2Br]
% of cells blocked in G2/M (XL2 cells [2]; 21 μM, 0.5 h): 46.8%
% of cells blocked in G2/M (XL2 cells [2]; 42 μM, 0.5 h): 47.3%
% of cells blocked in G2/M (XL2 cells [2]; 85 μM, 0.5 h): 50.9%
% of cells blocked in G2/M (XL2 cells [2]; 127 μM, 0.5 h): 42.8%
% of cells blocked in G2/M (XL2 cells [2]; 127 μM, 1 h): 41.7%
% of cells blocked in G2/M (XL2 cells [2]; 127 μM, 2 h): 38.3%
percentage of cells blocked in mitosis, compared with ALLN (in words) (XL2 cells [2]): activity comparable to that of the ALLN

inhibition at 2000 µM ([1]; 2 mM compound): 29%
melting point: 105 °C
Compound: CC(C)CN(CC(=O)NN(CC(C)C)C(=O)C(F)(F)F)NC(=O)OC(C)(C)C [P1, Boc-N^αhLeu-azaLeu-CF3]
% of cells blocked in G2/M (XL2 cells [2]; 145 μM, 7 h): 9.2%
% Anaphase + Telophase (XL2 cells [3]): 51%
% Metaphase (XL2 cells [3]): 35%
% Prophase (XL2 cells [3]): 14%

inhibition at 2000 µM ([1]; 2 mM compound): 29%
Compound: CCCCN(NC(=O)C(F)(F)F)C(=O)CN(CC(C)C)NC(=O)OC(C)(C)C [P4, Boc-N^αhLeu-N-azaNorleu-CF3]
% of cells blocked in G2/M (XL2 cells [2]; 145 μM, 4 h): 16.5%
% of cells blocked in G2/M (XL2 cells [2]; 145 μM, 8 h): 13.4%
% Anaphase + Telophase (XL2 cells [3]): 42%
% Metaphase (XL2 cells [3]): 42%
% Prophase (XL2 cells [3]): 16%

inhibition at 2000 µM ([1]; 2 mM compound): 35%
melting point: 124 °C
Compound: CC(C)CN(CC(=O)N(CC(C)C)NC=O)NC(=O)OC(C)(C)C [P13, Boc-N^αhLeu-N-azaLeu-H]
% of cells blocked in G2/M (XL2 cells [2]; 174 μM, 7 h): 20.8%

inhibition at 2000 µM ([1]; 2 mM compound): 32%
melting point: 147 °C
Compound: CCOC(=O)C(=O)N(CC(C)C)NC(=O)CN(CC(C)C)NC(=O)OC(C)(C)C [P5, Boc-N^αhLeu-azaLeu-CO2Et]
% of cells blocked in G2/M (XL2 cells [2]; 144 μM, 7 h): 5.2%
% Anaphase + Telophase (XL2 cells [3]): 37%
% Metaphase (XL2 cells [3]): 45%
% Prophase (XL2 cells [3]): 18%

inhibition at 2000 µM ([1]; 2 mM compound): 31%
melting point: 105 °C
Compound: CCCCN(NC(=O)C(=O)OCC)C(=O)CN(CC(C)C)NC(=O)OC(C)(C)C [P3, Boc-N^αhLeu-N-azaNorleu-CO2Et]
% of cells blocked in G2/M (XL2 cells [2]; 144 μM, 4 h): 14.9%
% of cells blocked in G2/M (XL2 cells [2]; 144 μM, 6 h): 15.2%
% of cells blocked in G2/M (XL2 cells [2]; 144 μM, 8 h): 13.8%
% Anaphase + Telophase (XL2 cells [3]): 53%
% Metaphase (XL2 cells [3]): 26%
% Prophase (XL2 cells [3]): 21%

inhibition at 2000 µM ([1]; 2 mM compound): 47%
Compound: COC(=O)N(CC(C)C)NC(=O)CN(CC(C)C)NC(=O)OC(C)(C)C [P2]
% of cells blocked in G2/M (XL2 cells [2]; 160 μM, 7 h): 6.7%
% Anaphase + Telophase (XL2 cells [3]): 46%
% Metaphase (XL2 cells [3]): 36%
% Prophase (XL2 cells [3]): 18%

inhibition at 2000 µM ([1]; 2 mM compound): 38%
Compound: CC(C)CN(CC(=O)N(CC(N)=O)CC(C)C)NC(=O)OC(C)(C)C [P6]
% of cells blocked in G2/M (XL2 cells [2]; 167 μM, 7 h): 9.2%
inhibitory selectivity during the different stages of mitosis (in words) (XL2 cells [3]): mostly blocks cells at the end of mitosis
% Anaphase + Telophase (XL2 cells [3]): 58%
% Metaphase (XL2 cells [3]): 24%
% Prophase (XL2 cells [3]): 18%

inhibition at 2000 µM ([1]; 2 mM compound): 48%
Compound: CC(C)CN(CC(=O)N(CC(C)C)NC(=O)CC#N)NC(=O)OC(C)(C)C [P12]
% of cells blocked in G2/M (XL2 cells [2]; 156 μM, 7 h): 23.5%

inhibition at 2000 µM ([1]; 2 mM compound): 34%
Compound: CCSCC(=O)NN(CC(C)C)C(=O)CN(CC(C)C)NC(=O)OC(C)(C)C [P16]
% of cells blocked in G2/M (XL2 cells [2]; 143 μM, 7 h): 24.2%

inhibition at 2000 µM ([1]; 2 mM compound): 30%
Compound: CCOC(=O)C(=O)NN(CC(C)C)C(=O)CN(CC(C)C)NC(=O)OC(C)(C)C [P9, Boc-N^αhLeu-N-azaLeu-CO2Et]
% of cells blocked in G2/M (XL2 cells [2]; 144 μM, 7 h): 14.1%

inhibition at 2000 µM ([1]; 2 mM compound): 28%
melting point: 110 °C
Compound: CC(C)CN(CC(=O)N(CC(C)C)NC(=O)C(F)(F)F)NC(=O)OC(C)(C)C [P8, Boc-N^αhLeu-N-azaLeu-CF3]
% of cells blocked in G2/M (XL2 cells [2]; 146 μM, 7 h): 19.1%

melting point: 159 °C
Compound: CC(C)CN(CC(=O)N(CC(C)C)/N=C/c1ccccc1B(O)O)NC(=O)OC(C)(C)C [P15o, Boc-N^αhLeu-N-azaLeu-CH-Ph-o-B(OH)2]

% inhibition of chymotrypsin activity of the purified proteasome ([1]; 2 mM compound): 71%
inhibition at 2000 µM ([1]; 2 mM compound): 70%
Compound: CC(C)CN(CC(=O)N(CC(C)C)NC(=O)CBr)NC(=O)OC(C)(C)C [P14, Boc-N^αhLeu-N-azaLeu-CH2Br]
% of cells blocked in G2/M (XL2 cells [2]; 2 μM, 0.5 h): 48.2%
% of cells blocked in G2/M (XL2 cells [2]; 4 μM, 0.5 h): 44.8%
% of cells blocked in G2/M (XL2 cells [2]; 11 μM, 0.5 h): 47.4%
% of cells blocked in G2/M (XL2 cells [2]; 22 μM, 0.5 h): 46.2%
% of cells blocked in G2/M (XL2 cells [2]; 45 μM, 0.5 h): 48.3%
% of cells blocked in G2/M (XL2 cells [2]; 91 μM, 0.5 h): 50.2%
% of cells blocked in G2/M (XL2 cells [2]; 137 μM, 1 h): 50.2%
concentration in the medium necessary to obtain a blockage in mitosis (XL2 cells [2]): 2 µM
percentage of cells blocked in mitosis, compared with ALLN (in words) (XL2 cells [2]): activity comparable to that of the ALLN
